Measured values from patent US20200268005A1, “PELLETED RUMINANT FEED ENRICHED WITH RUMEN-AVAILABLE INGREDIENTS” (BASF SE, priority 2014, published 2020).

Test: CLA analysis immediately after the processing step (pelleting / extrusion)
Assay type: physicochemical
Protocol: Preparation of the meal: Corn and extracted soybean meal were weighed in together, ground and mixed in a horizontal mixer. Lutalin or Lutrell were added and mixed in. The mixing time amounted to 15 minutes. These two mixtures were divided in each case. 80 kg were pelleted and 30 kg were extruded.
Pelleting press: Manufacturer Simon Heesen, horizontal die, 3.3×35 mm, nominal capacity 300 kg/hr. Extruder: Werner & Pfleiderer 37, die 2×0 3.9 mm, nominal capacity up to 50 kg/hr. Pelleting: Pelleting temperatures of 67-68.5° C. were reached. Extrusion: An extrusion temperature of 85° C. was reached, approximately 14% of water having been added. A residual moisture of 10 to 12% has been found in the end product.

activity loss on extrusion (extrusion temperature 85° C.): approx. 40%
Substance: conjugated linoleic acid [CLA]
survival of the pelleting process (pelleting 67-68.5° C., in words): survived the pelleting process very well
